Measured values: US9783536B2, “Nitrogen-containing heterocyclic compound or salt thereof” (FUJIFILM Corporation, priority 2013, dated 2017)
Like-named read-outs stand apart in the source and are kept apart here.

Legend:
CHO-K1 cells = test: CHO cell toxicity test; assay type: cell-based, Chinese hamster; conditions: Cricetulus griseus, read-out: IC50 value (concentration at which the number of viable cells was suppressed to 50% or less)
Procedure: In a CHO cell toxicity test, the following was used.
Cell: CHO-K1 cells (derived from Chinese hamster ovary) Test medium: F-12 MEDIUM+FCS (manufactured by Biowest) having a final concentration of 2%
Detection reagent: CELLTITER-GLO™ LUMINESCENT CELL VIABILITY ASSAY (trade name, manufactured by PROMEGA Corporation)
The CHO-K1 cells were seeded in a 96-well microplate for culture at 5,000 cells/well, and cultured in a CO2 incubator (37° C.) for 24 hours. An evaluation compound (final concentration: from 25.00 μmol/L to 0.20 μmol/L, common ratio: […]) was added thereto, followed by culturing for 24 hours, and the number of viable cells was calculated from emission intensity by CELLTITER-GLO™ (trade name, manufactured by PROMEGA Corporation). In the measurement of the emission intensity, VARIOSKAN FLASH (manufactured by Thermo Fisher Scientific Inc.) was used.
Inhibition ratio (%)=100−(A/B)×100
A: Emission intensity in the presence of a test compound
B: Emission intensity in the absence of a test compound

human PI3Kα protein = target: T1, human PI3Kα protein (Homo sapiens, UniProt P42336); test: PI3Kα enzyme assay (ADP-Glo); assay type: biochemical; conditions: read-out: PI3Kα enzyme inhibitory activity
T1 construct: purchased Carna Biosciences, Inc; host or cells: baculovirus expression system
Method in brief: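 Biotinylated human PI3Kα (baculovirus-expressed, 4.5 nmol/L) pre-incubated 15 min with compound in Tris-HCl pH 7.5, MgCl2, BSA; reaction 60 min at 25° C with 50 μmol/L PIP2 and 100 μmol/L ATP final. ADP quantified by ADP-Glo luminescence; IC50 calculated.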

[1] = target: T2, GST fusion human ERK2 protein (Homo sapiens, UniProt P28482); test: ERK2 enzyme assay (1); assay type: biochemical; conditions: read-out: ERK2 enzyme inhibitory activity (1)
T2 construct: purchased Carna Biosciences, Inc; host or cells: E. coli expression system
Method in brief: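 IC50 derived from the proportion of phosphorylated 5-FAM peptide, separated from unphosphorylated peptide by microfluidic mobility shift. Compound was first preincubated 15 min at room temperature with 2.5 nmol/L kinase at pH 7.5, then 43.1 μmol/L ATP plus 4.25 μmol/L substrate reacted 120 min at 25 °C.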

[2] = target: T2, GST fusion human ERK2 protein; test: ERK2 enzyme assay (2); assay type: biochemical; conditions: ERK2 enzyme assay (2); read-out: ERK2 enzyme inhibitory activity (2)
Method in brief: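 IC50 values come from mobility-shift measurement of phosphorylated versus unphosphorylated 5-FAM peptide substrate after EDTA quench. Beforehand, compound and 1.25 nmol/L E. coli-expressed GST–human ERK2 stood 15 min at room temperature (pH 7.5), then 1 mmol/L ATP and 4.25 μmol/L substrate (final) were added for 120 min at 25 °C.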

[3] = CHO-K1 cells, 24 hours culture with compound, CellTiter-Glo
[4] = 4.5 nmol/L PI3Kα, PIP2 50 μmol/L, ATP 100 μmol/L
[5] = 2.5 nmol/L ERK2, ATP 43.1 μmol/L

T2 sequence (P28482 whole entry, the tested form may be a part): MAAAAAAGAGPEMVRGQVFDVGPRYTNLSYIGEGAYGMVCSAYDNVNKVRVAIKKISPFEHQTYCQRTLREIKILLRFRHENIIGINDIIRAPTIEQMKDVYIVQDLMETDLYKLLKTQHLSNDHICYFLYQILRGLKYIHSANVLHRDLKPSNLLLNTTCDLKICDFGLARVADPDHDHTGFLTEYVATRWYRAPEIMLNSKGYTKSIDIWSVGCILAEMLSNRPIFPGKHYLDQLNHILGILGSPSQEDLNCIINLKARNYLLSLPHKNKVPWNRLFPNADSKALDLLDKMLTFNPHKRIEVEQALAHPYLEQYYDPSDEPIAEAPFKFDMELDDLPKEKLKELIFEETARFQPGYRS
T1 sequence (P42336 whole entry): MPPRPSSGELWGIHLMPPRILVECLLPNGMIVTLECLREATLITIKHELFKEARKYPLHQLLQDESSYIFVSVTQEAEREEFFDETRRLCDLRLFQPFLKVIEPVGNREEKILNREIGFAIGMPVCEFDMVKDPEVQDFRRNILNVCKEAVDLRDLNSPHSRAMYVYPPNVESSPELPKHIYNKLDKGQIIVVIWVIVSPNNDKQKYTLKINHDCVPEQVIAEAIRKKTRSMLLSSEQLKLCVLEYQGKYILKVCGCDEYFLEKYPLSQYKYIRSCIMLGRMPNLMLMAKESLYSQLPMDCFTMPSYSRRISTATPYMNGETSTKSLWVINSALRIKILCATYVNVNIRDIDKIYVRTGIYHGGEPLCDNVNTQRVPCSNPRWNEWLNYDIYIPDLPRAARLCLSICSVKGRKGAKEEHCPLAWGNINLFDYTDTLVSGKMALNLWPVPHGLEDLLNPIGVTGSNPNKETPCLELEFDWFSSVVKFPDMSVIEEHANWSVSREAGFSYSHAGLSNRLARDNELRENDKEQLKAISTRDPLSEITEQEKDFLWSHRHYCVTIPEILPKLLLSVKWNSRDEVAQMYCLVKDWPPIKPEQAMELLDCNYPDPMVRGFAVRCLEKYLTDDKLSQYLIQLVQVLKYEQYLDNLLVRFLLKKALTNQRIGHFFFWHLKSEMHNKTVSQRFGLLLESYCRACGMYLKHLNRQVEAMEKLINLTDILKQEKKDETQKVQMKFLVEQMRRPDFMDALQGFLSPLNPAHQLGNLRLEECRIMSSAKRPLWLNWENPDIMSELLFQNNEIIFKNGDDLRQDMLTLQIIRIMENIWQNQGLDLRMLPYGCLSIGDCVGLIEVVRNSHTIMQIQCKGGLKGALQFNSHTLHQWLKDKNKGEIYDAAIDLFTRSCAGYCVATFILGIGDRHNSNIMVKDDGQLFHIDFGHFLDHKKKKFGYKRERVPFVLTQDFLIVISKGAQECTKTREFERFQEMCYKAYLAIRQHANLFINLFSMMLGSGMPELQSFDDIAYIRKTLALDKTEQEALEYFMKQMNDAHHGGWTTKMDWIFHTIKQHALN
T1 sequence (P27986 whole entry partner): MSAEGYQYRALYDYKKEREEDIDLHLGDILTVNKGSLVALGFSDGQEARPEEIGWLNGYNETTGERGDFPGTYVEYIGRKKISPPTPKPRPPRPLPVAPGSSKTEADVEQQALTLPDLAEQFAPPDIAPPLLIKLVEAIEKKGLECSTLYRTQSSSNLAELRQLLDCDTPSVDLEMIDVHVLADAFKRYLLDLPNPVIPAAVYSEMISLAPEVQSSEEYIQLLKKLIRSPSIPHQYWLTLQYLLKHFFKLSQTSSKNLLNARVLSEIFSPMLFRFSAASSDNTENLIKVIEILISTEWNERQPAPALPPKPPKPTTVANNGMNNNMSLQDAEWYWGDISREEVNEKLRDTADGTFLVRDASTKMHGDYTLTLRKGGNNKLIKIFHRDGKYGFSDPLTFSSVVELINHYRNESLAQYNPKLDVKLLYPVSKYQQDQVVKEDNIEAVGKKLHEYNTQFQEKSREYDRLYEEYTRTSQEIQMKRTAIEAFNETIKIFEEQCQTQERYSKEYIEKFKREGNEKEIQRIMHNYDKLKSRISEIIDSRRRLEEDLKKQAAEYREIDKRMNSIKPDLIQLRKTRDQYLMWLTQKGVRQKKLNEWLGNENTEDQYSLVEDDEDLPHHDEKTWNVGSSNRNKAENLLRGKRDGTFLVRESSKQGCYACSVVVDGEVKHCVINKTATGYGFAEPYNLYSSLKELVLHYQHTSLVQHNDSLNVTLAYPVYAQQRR

IC50 (human PI3Kα protein; [4]) [nM]	IC50 [1, 5] [nM]	IC50 (human PI3Kα protein) [nM]	IC50 ([1]; ERK2 enzyme assay (1)) [nM]	IC50 [2] [nM]	SMILES	IC50 (CHO-K1 cells; [3]) [nM]	IC50 (CHO-K1 cells; CHO-K1, 24 h) [nM]
< 1000	< 1000				c1csc(Nc2ccc3ncc(-c4cnn(CCCN5CCCC5)c4)cc3n2)n1 [Example 0128]	≥ 25000	
		< 1000	< 1000		CC(C)c1cnnc(Nc2ccc3ncc(-c4ccncc4)cc3n2)c1 [Example 0406]	≥ 25000	
		< 1000	< 1000		c1nc2ccc(Nc3nnc(C4CCCO4)s3)nc2cc1-c1cnn(CCCN2CCCC2)c1 (stereo not drawn) [Example 0325, N-(7-(1-(3-(pyrrolidin-1-yl)propyl)-1H-pyrazol-4-yl)-1,5-naphthyridin-2-yl)-5-(tetrahydrofuran-2-yl)-1,3,4-thiadiazole-2-amine]	≥ 25000	
		< 1000	< 1000		c1nc2ccc(Nc3nnc([C@H]4CCCO4)s3)nc2cc1-c1cnn(CCCN2CCCC2)c1 [Example 0237]	≥ 25000	
		< 1000	< 1000		CN(C)CCCn1cc(-c2cnc3ccc(Nc4nncs4)nc3c2)cn1 [Example 0301]	≥ 25000	
		< 1000	< 1000		c1nc2ccc(Nc3nnc([C@@H]4CCCO4)s3)nc2cc1-c1cnn(CCCN2CCCC2)c1 [Example 0233]	≥ 25000	
		< 1000	< 1000		CC(C)(CO)c1cnnc(Nc2ccc3ncc(-c4cnn(CCCN5CCCC5)c4)cc3n2)c1 [Example 0405, 2-methyl-2-(6-((7-(1-(3-(pyrrolidin-1-yl)propyl)-1H-pyrazol-4-yl)-1,5-naphthyridin-2-yl)amino)pyridazin-4-yl)propan-1-ol]	≥ 25000	
		< 1000	< 1000		CCCc1nn(CCCN2CCOCC2)cc1-c1cnc2ccc(Nc3cc(C(C)C)cnn3)nc2c1 [Example 0390, N-(5-isopropylpyridazin-3-yl)-7-(1-(3-morpholinopropyl)-3-propyl-1H-pyrazol-4-yl)-1,5-naphthyridine-2-amine]	≥ 25000	
		< 1000	< 1000		Cc1nnc(Nc2ccc3ncc(-c4cnn(CCCN(C)C)c4)cc3n2)s1 [Example 0302]	≥ 25000	
< 1000	< 1000				OCCOc1cncc(Nc2cnc3ccc(Nc4nnc(C5CCCC5)s4)nc3c2)c1 [Example 0097]	≥ 25000	
		< 1000	< 1000		Cn1cc(-c2cnc3ccc(Nc4nnc([C@H]5CCCO5)s4)nc3c2)cn1 [Example 0232]	≥ 25000	
		< 1000	< 1000		CC(C)c1cnnc(Nc2ccc3ncc(-c4cnn(CCC(O)C(F)(F)F)c4)cc3n2)c1 (stereo not drawn) [Example 0400]	≥ 25000	
< 1000	< 1000				O=S(=O)(Nc1nnc(Nc2ccc3ncc(-c4cnn(CCN5CCOCC5)c4)cc3n2)s1)c1ccccc1 [Example 0179, N-(5-((7-(1-(2-morpholinoethyl)-1H-pyrazol-4-yl)-1,5-naphthyridin-2-yl)amino)-1,3,4-thiadiazol-2-yl)benzene sulfonamide]	≥ 25000	
1000 to 10000	< 1000				Cn1cc(-c2cnc3ccc(Nc4cccnn4)nc3c2)cn1 [Example 0037]	≥ 25000	
		< 1000	< 1000		CCN(CC)CCCn1cc(-c2cnc3ccc(Nc4cc(C(C)C)cnn4)nc3c2)cn1 [Example 0374, 7-(1-(3-(Diethylamino)propyl)-1H-pyrazol-4-yl)-N-(5-isopropylpyridazin-3-yl)-1,5-naphthyridine-2-amine]	≥ 25000	
		< 1000	< 1000		c1nc2ccc(Nc3nnc(C4CCOC4)s3)nc2cc1-c1cnn(CCCN2CCCC2)c1 (stereo not drawn) [Example 0238]	≥ 25000	

IC50 (human PI3Kα protein; [4]) [nM]	IC50 [1, 5] [nM]	IC50 (human PI3Kα protein) [nM]	IC50 ([1]; ERK2 enzyme assay (1)) [nM]	IC50 [2] [nM]	SMILES	IC50 (CHO-K1 cells; [3]) [nM]	IC50 (CHO-K1 cells; CHO-K1, 24 h) [nM]
		< 1000	< 1000		c1nc2ccc(Nc3nnc(C4CC4)s3)nc2cc1-c1cnn(CCCN2CCCC2)c1 [Example 0362]	≥ 25000	
		< 1000	< 1000		c1n[nH]cc1Nc1cnc2ccc(Nc3nnc(C4CCC4)s3)nc2c1 [Example 0222, N^2-(5-cyclobutyl-1,3,4-thiadiazol-2-yl)-N^7-(1H-pyrazol-4-yl)-1,5-naphthyridine-2,7-diamine]	≥ 25000	
		< 1000	< 1000		CCc1nnc(Nc2ccc3ncc(-c4cnn(CCCN5CCCC5)c4)cc3n2)s1 [Example 0363]	≥ 25000	
		< 1000		< 1000	CC(C)c1cnnc(Nc2ccc3ncc(-c4cnn(CC5CN(C)C5)c4)cc3n2)c1 [Example 0491]	≥ 25000	
		< 1000		< 1000	CCN(CC)c1cnnc(Nc2ccc3ncc(-c4cnn(C)c4)cc3n2)c1 [Example 0517]	≥ 25000	
		< 1000		< 1000	CC(C)c1cnnc(Nc2ccc3ncc(-c4c[nH]nc4-c4cccnc4)cc3n2)c1 [Example 0545]	≥ 25000	
		< 1000		< 1000	CC(C)c1cnnc(Nc2ccc3ncc(-c4cnn(CCCN5CC(N)C5)c4)cc3n2)c1 [Example 0695, 7-(1-(3-(3-aminoazetidin-1-yl)propyl)-1H-pyrazol-4-yl)-N-(5-isopropylpyridazin-3-yl)-1,5-naphthyridine-2-amine]	≥ 25000	
		< 1000		< 1000	COC1CN(CC(Cn2cc(-c3cnc4ccc(Nc5cc(C(C)C)cnn5)nc4c3)cn2)OC)C1 (stereo not drawn) [Example 0812, N-(5-isopropylpyridazin-3-yl)-7-(1-(2-methoxy-3-(3-methoxyazetidin-1-yl)propyl)-1H-pyrazol-4-yl)-1,5-naphthyridine-2-amine]	≥ 25000	
		< 1000		< 1000	FC(F)(F)Cn1cc(-c2cnc3ccc(Nc4cc(C5CC5)cnn4)nc3c2)cn1 [Example 0465, N-(5-cyclopropylpyridazin-3-yl)-7-(1-(2,2,2-trifluoroethyl)-1H-pyrazol-4-yl)-1,5-naphthyridine-2-amine]	≥ 25000	
		< 1000		< 1000	Cn1cc(-c2cnc3ccc(Nc4cc(C5CC5)cnn4)nc3c2)c(-c2cccnc2)n1 [Example 0573, N-(5-cyclopropylpyridazin-3-yl)-7-(1-methyl-3-(pyridin-3-yl)-1H-pyrazol-4-yl)-1,5-naphthyridine-2-amine]	≥ 25000	
		< 1000		< 1000	CC(C)c1cnnc(Nc2ccc3ncc(-c4cnn(CCCN5CCN(C)C(=O)C5)c4)cc3n2)c1 [Example 0723, 4-(3-(4-(6-((5-isopropylpyridazin-3-yl)amino)-1,5-naphthyridin-3-yl)-1H-pyrazol-1-yl)propyl)-1-methylpiperazin-2-one]	≥ 25000	
		< 1000		< 1000	COCC1COCCN1CCCn1cc(-c2cnc3ccc(Nc4cc(C(C)C)cnn4)nc3c2)cn1 (stereo not drawn) [Example 0691]	≥ 25000	
		< 1000		< 1000	CC(C)c1cnnc(Nc2ccc3ncc(-c4cnn(CCCN5CCOCC5(C)C)c4)cc3n2)c1 [Example 0657]	≥ 25000	
		< 1000		< 1000	CC(C)c1cnnc(Nc2ccc3ncc(-c4cn(C)nc4C4CC4)cc3n2)c1 [Example 0567]	≥ 25000	
		< 1000		< 1000	CC(C)c1cnnc(Nc2ccc3ncc(-c4cnn(CCCS(C)(=O)=O)c4)cc3n2)c1 [Example 0550]	≥ 25000	

SMILES	IC50 (human PI3Kα protein; [4]) [nM]	IC50 [1, 5] [nM]	IC50 (human PI3Kα protein) [nM]	IC50 ([1]; ERK2 enzyme assay (1)) [nM]	IC50 [2] [nM]	IC50 (CHO-K1 cells; [3]) [nM]	IC50 (CHO-K1 cells; CHO-K1, 24 h) [nM]
CC(C)c1cnnc(Nc2ccc3ncc(-c4cn(C)nc4-c4cncs4)cc3n2)c1 [Example 0583]			< 1000		< 1000		≥ 25000
CC(C)c1cnnc(Nc2ccc3ncc(-c4cnn(CCCN5CC6CC(C5)O6)c4)cc3n2)c1 [Example 0637, 7-(1-(3-(6-Oxa-3-azabicyclo[3.1.1]heptan-3-yl)propyl)-1H-pyrazol-4-yl)-N-(5-isopropylpyridazin-3-yl)-1,5-naphthyridine-2-amine]			< 1000		< 1000	≥ 25000	
